Experimental data from PubChem BioAssay (NCI).
Several values for one entry are separate records, joined by “and”; a condition that tells them apart may be missing. Equal values may be shown once.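 Interpolation was linear, between the two tested concentrations surrounding the appropriate level; five concentrations were tested over 48 hours in 96-well plates. Abbreviation: GI50, concentration required for 50% inhibition of growth. TGI marks complete inhibition of growth.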

Key:
Assay in all cases: growth of human tumour cells (NCI), 48 h
[1] = system: BT-549 breast
[2] = system: DMS 114 small cell lung
[3] = system: XF 498 CNS
[4] = system: KM20L2 colon
[5] = system: SNB-78 CNS
[6] = system: M19-MEL melanoma
[7] = system: HOP-18 NSCLC
[8] = system: RXF-631 renal
[9] = system: MDA-N

Row | SMILES | GI50 [1] [µM] | TGI [1] | TGI [2] [µM] | TGI [4] [µM] | TGI [5] [µM] | TGI [6] [µM] | further results
1 | COc1cc(C2CC(=O)Nc3c2ccc2ccccc32)cc(Br)c1OC (configuration not stated) | 0.384 | 17.5 µM |  |  |  |  | 
2 | O=C(N/N=C/c1ccc(Cl)cc1Cl)c1ccc2nc(-c3ccc(Cl)cc3)[nH]c2c1 | 4.93 | 21.3 µM |  |  |  |  | 
3 | COc1nc2c(nc(N)n2C2OCC(O)C(O)C2O)c(=O)n1C (configuration not stated) |  |  | > 100 | > 100 | > 100 | > 100 | TGI [3]: > 100 µM; TGI [7]: > 100 µM
4 | C=C1CCCC2[C@](C)(CC3=C(O)C(=O)C=C(OC)C3=O)[C@@H](C)CC[C@]12C (some centres not stated) |  |  | 7.61 | 31.8 |  | 5.95 | TGI [3]: 56.7 µM; TGI [8]: > 100 µM; TGI [7]: 8.59 µM
5 | Clc1cc(-c2ccccc2)nc2ccccc12 |  | 80.4 µM |  |  |  |  | TGI [9]: > 100 µM
6 | O=c1cccccc1[O-].O=c1cccccc1[O-].O=c1cccccc1[O-].[Ce+3] |  |  |  | > 100 | 63.2 |  | GI50 [4]: 24.1 µM; GI50 [5]: 15.4 µM
7 | Cn1ccnc1CCc1ccc(Cl)c(Cl)c1 |  |  | > 100 | > 100 | > 100 | > 100 | TGI [7]: > 100 µM
8 | Clc1ccc(CNc2nccc(-c3cnn4ncccc34)n2)cc1 | 6.4 | 14.7 µM |  |  |  |  | 
9 | CCOC(=O)c1ccc(N2C(=O)Cc3ccccc3C2=O)cc1 |  |  | > 100 | > 100 | > 100 | > 100 | 
10 | c1ccc(B2OCC(C3OB(c4ccccc4)OC4COB(c5ccccc5)OC43)O2)cc1 (configuration not stated) |  | > 100 µM |  |  |  |  | TGI [9]: > 100 µM
11 | Cc1ccccc1C(=O)Oc1ccc(OCc2ccccc2)cc1 |  |  | > 100 | > 100 | > 100 | > 100 | TGI [3]: > 100 µM; TGI [7]: > 100 µM
12 | O=[N+]([O-])c1ccc([N+]2=NC(c3ccccc3)=NN(c3ccccc3)C2)cc1 |  |  | 94.1 | > 100 | > 100 | > 100 | TGI [3]: 58.9 µM; TGI [7]: > 100 µM
13 | N#C/C(=C\c1c(-c2ccccc2)[nH]c2ccccc12)C(=O)c1ccccc1 | 3 | > 100 µM |  |  |  |  | 
14 | Cc1nc2c(N3CCCC3)nc(N3CCNCC3)nc2nc1NCc1ccccc1 | 5.05 | 10.7 µM and 14.8 µM |  |  |  |  | GI50 [9]: 4.38 µM; TGI [9]: 9.44 µM and 3.28 µM
15 | COc1ccc(-c2ccc(-c3ccc(C(=N)N)cn3)o2)cc1Cl | 1.75 | 3.21 µM |  |  |  |  | 
16 | Nc1nccc2c1ncn2C1OC(CO)C(O)C1O (configuration not stated) | 88.8 | > 100 µM |  |  |  |  | 
17 | Cc1ncc(C(=O)Nc2ccc(CN3CCN(C)CC3)c(C(F)(F)F)c2)cc1C#Cc1c(N)ncc2ccccc12 | 0.894 | 1.96 µM |  |  |  |  | 
18 | FC(F)(F)c1cccc2c(SCCc3n[nH]c(=S)o3)ccnc12 | 30 | > 100 µM |  |  |  |  | 
19 | Cc1cnccc1N=Nc1ccc(N(C)C)cc1 |  | 49.3 µM |  |  |  |  | TGI [9]: 69.3 µM

Row | SMILES | GI50 [1] [µM] | TGI [1] | TGI [2] [µM] | TGI [4] [µM] | TGI [5] [µM] | TGI [6] [µM] | further results
20 | CCOC(=O)C(C)(C)Oc1ccc2c(-c3ccc(Cl)cc3)c(-c3ccc(Cl)cc3)c(=O)oc2c1 |  |  | > 100 | > 100 |  | > 100 | TGI [8]: > 100 µM
21 | CC(=O)OC1CCC2C(=CCC3C2(C)C(=O)CC2(C)C(C4(C)OC(C(C)C)=CC4=O)C(O)CC32C)C1(C)C (configuration not stated) |  |  | 57.8 | 51.4 | > 100 | 47.7 | TGI [3]: > 100 µM
22 | CC(=O)/C=C1\CC(=O)Nc2ccccc2N1 |  |  | > 100 | > 100 | > 100 |  | 
23 | S=c1sc2cscc2s1 |  |  | 45.2 | 66.5 | > 100 | 34.3 | TGI [3]: 49.9 µM; TGI [8]: 61 µM; TGI [7]: 67.2 µM
24 | O=C(COc1cccc(/C=C2\Oc3ccc4ccccc4c3C2=O)c1)c1ccc(Cl)cc1 | 20.5 | 61.7 µM |  |  |  |  | 
25 | CSc1ccc(SC2c3ccc(C)cc3Oc3nc(N)c(C#N)c(N)c32)cc1 (configuration not stated) | 1.53 | 2.87 µM |  |  |  |  | 
26 | CS/C(c1ccccc1)=[N+](\[O-])Cc1ccccc1 |  |  | > 100 | > 100 | > 100 | > 100 | TGI [3]: > 100 µM; TGI [7]: > 100 µM
27 | COc1ccc(Cn2cc3c(c2-c2cc(OC)c(OC)c(OC)c2)CCc2cnoc2-3)cc1N | 0.173 | > 100 µM |  |  |  |  | 
28 | CN(CC(=O)O)Cc1oc(CO)cc(=O)c1O |  | > 100 µM |  |  |  |  | TGI [9]: > 100 µM
29 | Cn1cnc2c(F)c(Nc3ccc(Br)cc3F)c(C(=O)NOCCO)cc21 | > 60.2 | > 100 µM |  |  |  |  | 
30 | Cc1ccc2nc(-c3ccc(N)c4ccccc34)[nH]c2c1 | 0.399 | 21.1 µM |  |  |  |  | 
31 | O=C(NC1C2CC3CC(C2)CC1C3)/C(Cl)=C1/Sc2ccccc2NC1=O (configuration not stated) |  |  | > 100 | > 100 | > 100 | > 100 | TGI [3]: > 100 µM; TGI [7]: > 100 µM
32 | CCN(CC)CCn1c2ccc(OC)cc2c2sc3cc(OC)ccc3c(=O)c21 | 2.24 | 5.95 µM |  |  |  |  | 
33 | OCC(CCc1c[nH]c2ccccc12)c1c[nH]c2ccccc12 (configuration not stated) |  | 30.5 µM |  |  |  |  | TGI [9]: 31 µM
34 | COC(=O)[C@H](C)NC(=O)[C@@H](OC)[C@@H]1Cc2cc3cc(OC4CC(OC5CC(O)C(O)C(C)O5)C(O)C(C)O4)c(C)c(O)c3c(O)c2C(=O)[C@H]1OC1CC(OC2CC(OC3CC(C)(O)C(O)C(C)O3)C(O)C(C)O2)C(O)C(C)O1 (some centres not stated) | 0.0881 | 1.2 µM |  |  |  |  | 
35 | COc1ccc(-c2cc(-c3cccc(NS(C)(=O)=O)c3)nc(N)c2C#N)cc1 | 0.127 | 12.3 µM |  |  |  |  | 
36 | O=C(O)c1ccccc1N=Nc1ccc2oc(=O)c(C(=O)Nc3ccccc3)cc2c1 |  |  | 76.9 | 83.9 |  | > 100 | TGI [3]: > 100 µM; TGI [7]: > 100 µM
37 | C=C(CNC(=O)c1ccccc1)c1ccc(C(=O)Nc2ccccc2N)cc1 | 19.6 | > 100 µM |  |  |  |  | 
38 | O=C1C(=O)N(c2nccs2)C(=O)C(=O)C1c1nc2ccccc2s1 |  |  | > 100 | > 100 | > 100 | > 100 | TGI [3]: > 100 µM; TGI [7]: > 100 µM
